Where a name gives a salt, the structure may show the parent alone.
Tests used:
[1] = target: T1, β-kinase domain of the human insulin receptor (CKD) (Homo sapiens, UniProt P06213); assay: 32P-cytoplasmic kinase domain (CKD) autophosphorylation assay; type: biochemical; details: phosphorylation of CKD expressed as % of the vehicle level; 10 minutes at room temperature; compound concentration not given
T1 construct: The complete β-kinase domain of the human insulin receptor (CKD) was expressed in, and purified from, baculovirus; made in house
T1 sequence (P06213 980-1382 limits assumed): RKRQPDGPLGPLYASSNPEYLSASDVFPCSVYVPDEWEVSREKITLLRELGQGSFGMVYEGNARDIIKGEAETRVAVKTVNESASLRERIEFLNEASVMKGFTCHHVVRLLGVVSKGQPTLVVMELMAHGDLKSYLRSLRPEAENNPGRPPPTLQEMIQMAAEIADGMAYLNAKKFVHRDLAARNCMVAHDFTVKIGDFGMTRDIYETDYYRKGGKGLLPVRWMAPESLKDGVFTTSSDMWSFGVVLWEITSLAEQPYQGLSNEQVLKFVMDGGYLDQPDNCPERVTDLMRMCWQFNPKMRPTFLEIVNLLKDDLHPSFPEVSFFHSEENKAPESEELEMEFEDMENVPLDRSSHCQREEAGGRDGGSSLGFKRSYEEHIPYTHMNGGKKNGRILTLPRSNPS
Experimental: ^32P-cytoplasmic Kinase Domain (CKD) Autophosphorylation Assay The insulin signaling pathway is activated through stimulation of the insulin receptor. A major component of this activation is the phosphorylation of a specific portion of the receptor called the β-kinase domain. The complete β-kinase domain of the human insulin receptor (CKD) was expressed in, and purified from, baculovirus. CKD (4.0μg/ml), in a solution of 29 mM HEPES (pH 7.6), 0.05% Triton X-100, 10 mM MgCl2, 2 mM MnCl2 (50 μl final volume), was combined with 50 μM ATP, and 5 μCi ^32P-ATP (3000Ci/mmol.). A test compound, or the vehicle (dimethyl sulfoxide (DMSO)) was added to a final DMSO concentration of 1%. The mixture was incubated for 10 minutes at room temperature. The reaction was terminated by the addition of 10 μl 200 mM EDTA. A 30 μl volume was removed, mixed with 5 μl of 6× Laemmeli sodium dodecyl sulfate (SDS) treatment buffer, and heated to 94° C. for 5 minutes. A 20 μl aliquot was then run an SDS-PAGE gel. The radioactivity incorporated into the CKD band was quantified by phosphorimaging of the gel, or scintillation counting of the excised bands. The potency of a compound for increasing phosphorylation was expressed as % of the vehicle level.

3T3 L1 fibroblasts = assay: Glucose transport activity assay (14C-2-deoxy-D-glucose uptake); type: cell-based; details: Mus musculus; EC (effective concentration) for increase in glucose transport; 14C-2-deoxy-D-glucose, 3T3 L1 cells; read-out: Concentration (μM) to reach >150% activity of vehicle control
In short: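 Differentiated 3T3 L1 adipocytes (IBMX/dexamethasone/insulin induction), serum-starved overnight, preincubated 30 min at 37 °C with compound ± insulin in pH 7.4 salt buffer, then 30 min with 5 μCi/ml 14C-2-deoxy-D-glucose. Lysate radioactivity counted; EC = concentration raising uptake above 150% of vehicle control.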

STZ/HFD rat = assay: Blood glucose determination in the STZ/HFD rat model of Type 2 diabetes; type: in vivo; details: STZ/HFD rat model, oral compound administration (30 mg/kg)
Excerpt: Blood Glucose Determination in the STZ/HFD Rat Model of Type 2 Diabetes
Representative compounds were also profiled in genetically normal rats given a high-fat diet followed by treatment with a low dose of streptozotocin (STZ/HFD). This treatment regimen recreates both the insulin resistance and the hyperglycemia seen in human Type 2 diabetes. Male CD rats (Jackson Labs, Bar Harbor Me.) were maintained according to NIH guidelines, housed two per cage, and fed either standard lab chow (Tekland Laboratory Diets, James Grain, San Jose, Calif.) or the same chow supplemented with chocolate bars, cookies, and potato chips such that their final diet contained 30% fat by weight (high-fat diet; HFD). After two weeks of this diet, the animals were given an injection of freshly-prepared streptozotocin (35 mg/kg, i.p.) and continued on the HFD. Animals that achieved glucose levels of 190 to 380 mg/dl were used in this study. At the end of the 12-hour light/dark cycle, and just prior to the experiment, the animals were moved to new cages with no food available until 4 hours after treatment. The compound or vehicle (PBS) was given p.o. by gavage, and blood was sampled by approved IACUC protocol using tail cap method. Glucose was determined using the Glucometer Elite (Bayer, Elkhart, Ind.).
The reduction was maximal (20%) 4 hours after the administration of Compound 15.

Row | Compound | % Activity vs. Control [1] [%] | EC (150% of vehicle control) (3T3 L1 fibroblasts) [µM] | % Reduction in Blood Glucose (maximal reduction) (STZ/HFD rat) [%] | Time (h) at which maximal reduction in blood glucose occurred (STZ/HFD rat) [h]
1 | O=C(Nc1ccc2c(O)cc(S(=O)(=O)Nc3ccc(Cl)c(S(=O)(=O)O)c3)cc2c1)Nc1ccc2c(O)cc(S(=O)(=O)Nc3ccc(Cl)c(S(=O)(=O)O)c3)cc2c1 [Compound 93, 2-chloro-5-{[(7-{[(7-{[(4-chloro-3-sulfophenyl)amino]sulfonyl}-5-hydroxy(2-naphthyl))amino]carbonylamino}-4-hydroxy(2-naphthyl))sulfonyl]amino}benzenesulfonic acid] | – | 3.2 | 25 | 4
2 | O=C(Nc1ccc2c(O)cc(S(=O)(=O)Nc3ccc(C(=O)O)cc3)cc2c1)Nc1ccc2c(O)cc(S(=O)(=O)Nc3ccc(C(=O)O)cc3)cc2c1 [Compound 29, 4-{[(7-{[N-(7-{[(4-carboxyphenyl)amino]sulfonyl}-5-hydroxy(2-naphthyl))carbamoyl]amino}-4-hydroxy-2-naphthyl)sulfonyl]amino}benzoic acid] | 106 | 3.2 | 18 | 6
3 | COC(=O)c1ccc(NS(=O)(=O)c2cc(O)c3ccc(NC(=O)Nc4ccc5c(O)cc(S(=O)(=O)O)cc5c4)cc3c2)cc1 [Compound 26, 4-hydroxy-7-({[5-hydroxy-7-({[4-(methoxycarbonyl)phenyl]amino}sulfonyl)(2-naphthyl)]amino}carbonylamino)naphthalene-2-sulfonic acid] | 124 | 32 | – | –
4 | O=C(Nc1ccc2c(O)cc(S(=O)(=O)O)cc2c1)Nc1ccc2c(O)cc(S(=O)(=O)Nc3ccc(C(=O)O)cc3)cc2c1 [Compound 28, 4-{[(4-hydroxy-7-{[N-(5-hydroxy-7-sulfo(2-naphthyl))carbamoyl]amino}-2-naphthyl)sulfonyl]amino}benzoic acid] | 124 | 32 | – | –
5 | O=C(Nc1ccc2ccc(S(=O)(=O)Nc3ccc(Cl)c(C(=O)O)c3)cc2c1)Nc1ccc2ccc(S(=O)(=O)Nc3ccc(Cl)c(C(=O)O)c3)cc2c1 [Compound 48, 5-{[(7-{[N-(7-{[(3-carboxy-4-chlorophenyl)amino]sulfonyl}(2-naphthyl))carbamoyl]amino}(2-naphthyl))sulfonyl]amino}-2-chlorobenzoic acid] | – | 3.2 | 24 | 2
6 | O=C(Nc1ccc2ccc(S(=O)(=O)O)cc2c1)Nc1ccc2ccc(S(=O)(=O)O)cc2c1 [Compound 3, 7-{[(7-sulfo-2-naphthyl)amino]carbonylamino}naphthalene-2-sulfonic acid disodium salt] | 88 | 3.2 | – | –
7 | NS(=O)(=O)c1cccc(NS(=O)(=O)c2ccc3ccc(NC(=O)Nc4ccc5ccc(S(=O)(=O)Nc6cccc(S(N)(=O)=O)c6)cc5c4)cc3c2)c1 [Compound 23, N-(7-{[(3-sulfamoylphenyl)amino]sulfonyl}(2-naphthyl))[(7-{[(3-sulfamoylphenyl)amino]sulfonyl}(2-naphthyl))amino]carboxamide] | 80 | 10 | – | –

The next lines start with results.

Row | % Activity vs. Control [1] [%] | Compound | EC (150% of vehicle control) (3T3 L1 fibroblasts) [µM] | % Reduction in Blood Glucose (maximal reduction) (STZ/HFD rat) [%] | Time (h) at which maximal reduction in blood glucose occurred (STZ/HFD rat) [h]
8 | 109 | COC(=O)c1cccc(NS(=O)(=O)c2cc(O)c3ccc(NC(=O)Nc4ccc5c(O)cc(S(=O)(=O)Nc6cccc(C(=O)OC)c6)cc5c4)cc3c2)c1 [Compound 41, methyl 3-({[4-hydroxy-7-({[5-hydroxy-7-({[3-(methoxycarbonyl)phenyl]amino}sulfonyl)(2-naphthyl)]amino}carbonylamino)-2-naphthyl]sulfonyl}amino)benzoate] | 32 | 20 | 4
9 | 130 | O=C(Nc1ccc2ccc(S(=O)(=O)Nc3cccc(C(=O)O)c3)cc2c1)Nc1ccc2ccc(S(=O)(=O)Nc3cccc(C(=O)O)c3)cc2c1 [Compound 40, 3-{[(7-{[N-(7-{[(3-carboxyphenyl)amino]sulfonyl}-2-naphthyl)carbamoyl]amino}-2-naphthyl)sulfonyl]amino}benzoic acid] | 3.2 | – | –
10 | 124 | O=C(Nc1ccc2c(O)cc(S(=O)(=O)Nc3cccc(C(=O)O)c3)cc2c1)Nc1ccc2c(O)cc(S(=O)(=O)Nc3cccc(C(=O)O)c3)cc2c1 [Compound 42, 3-{[(7-{[N-(7-{[(3-carboxyphenyl)amino]sulfonyl}-5-hydroxy(2-naphthyl))carbamoyl]amino}-4-hydroxy-2-naphthyl)sulfonyl]amino}benzoic acid] | 3.2 | – | –
11 | 166 | COc1cc(S(=O)(=O)O)cc2cc(NC(=O)Nc3ccc4c(O)cc(S(=O)(=O)O)cc4c3)ccc12 [Compound 98, 4-hydroxy-7-{[(5-methoxy-7-sulfo(2-naphthyl))amino]carbonylamino}naphthalene-2-sulfonic acid] | 32 | – | –
12 | 104 | NS(=O)(=O)c1ccc2ccc(NC(=O)Nc3ccc4ccc(S(N)(=O)=O)cc4c3)cc2c1 [Compound 89, N-(7-sulfamoyl(2-naphthyl))[(7-sulfamoyl(2-naphthyl))amino]carboxamide] | 3.2 | – | –
13 | 93 | COC(=O)c1cccc(NS(=O)(=O)c2ccc3ccc(NC(=O)Nc4ccc5ccc(S(=O)(=O)Nc6cccc(C(=O)OC)c6)cc5c4)cc3c2)c1 [Compound 39, methyl 3-({[7-({[7-({[3-(methoxycarbonyl)phenyl]amino}sulfonyl)-2-naphthyl]amino}carbonylamino)-2-naphthyl]sulfonyl}amino)benzoate] | 32 | – | –
14 | 110 | COc1cc(S(=O)(=O)O)cc2cc(NC(=O)Nc3ccc4c(OC)cc(S(=O)(=O)O)cc4c3)ccc12 [Compound 99, 4-methoxy-7-{[(5-methoxy-7-sulfo(2-naphthyl))amino]carbonylamino}naphthalene-2-sulfonic acid] | 32 | – | –

From patent US7071231B2, “Naphthalene ureas as glucose uptake enhancers” (Telik, Inc., priority 1999, dated 2006)
